The supplement of paper PMC11451515

System: SEM cells
Test: cell viability relative to DMSO control; higher = less cytotoxic
Conditions: 48 h
How it was run: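 Viability was expressed as a per-plate percentage of DMSO wells, with cell-free wells as background. Leukemia cells (NOMO1 or SEM at 500 cells/well, P12-Ichikawa at 1000 cells/well) were adapted for at least four passages in each medium and seeded in 1536-well plates (5 μl). Library compounds in DMSO were pin-dosed over an 11-point threefold series from 47 μM to 0.79 nM, and CellTiter-Glo One luminescence was read after 48 h at 37°C.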

[1] = HPLM + 10% dialyzed FBS, 0.000781 µM
[2] = HPLM + 10% dialyzed FBS, 0.00234 µM
[3] = HPLM + 10% dialyzed FBS, 0.00702 µM
[4] = HPLM + 10% dialyzed FBS, 0.0211 µM
[5] = HPLM + 10% dialyzed FBS, 0.0632 µM
[6] = HPLM + 10% dialyzed FBS, 0.19 µM
[7] = HPLM + 10% dialyzed FBS, 0.569 µM
[8] = HPLM + 10% dialyzed FBS, 1.71 µM
[9] = HPLM + 10% dialyzed FBS, 5.12 µM
[10] = HPLM + 10% dialyzed FBS, 15.4 µM
[11] = HPLM + 10% dialyzed FBS, 46.1 µM
[12] = RPMI 5 mM glucose + 10% FBS, 0.000781 µM
[13] = RPMI 5 mM glucose + 10% FBS, 0.00234 µM
[14] = RPMI 5 mM glucose + 10% FBS, 0.00702 µM
[15] = RPMI 5 mM glucose + 10% FBS, 0.0211 µM
[16] = RPMI 5 mM glucose + 10% FBS, 0.0632 µM
[17] = RPMI 5 mM glucose + 10% FBS, 0.19 µM
[18] = RPMI 5 mM glucose + 10% FBS, 0.569 µM
[19] = RPMI 5 mM glucose + 10% FBS, 1.71 µM
[20] = RPMI 5 mM glucose + 10% FBS, 5.12 µM
[21] = RPMI 5 mM glucose + 10% FBS, 15.4 µM
[22] = RPMI 5 mM glucose + 10% FBS, 46.1 µM
[23] = RPMI 5 mM glucose + 10% dialyzed FBS, 0.000781 µM
[24] = RPMI 5 mM glucose + 10% dialyzed FBS, 0.00234 µM
[25] = RPMI 5 mM glucose + 10% dialyzed FBS, 0.00702 µM
[26] = RPMI 5 mM glucose + 10% dialyzed FBS, 0.0211 µM
[27] = RPMI 5 mM glucose + 10% dialyzed FBS, 0.0632 µM
[28] = RPMI 5 mM glucose + 10% dialyzed FBS, 0.19 µM
[29] = RPMI 5 mM glucose + 10% dialyzed FBS, 0.569 µM
[30] = RPMI 5 mM glucose + 10% dialyzed FBS, 1.71 µM
[31] = RPMI 5 mM glucose + 10% dialyzed FBS, 5.12 µM
[32] = RPMI 5 mM glucose + 10% dialyzed FBS, 15.4 µM
[33] = RPMI 5 mM glucose + 10% dialyzed FBS, 46.1 µM

| Structure (SMILES) | cell viability [1] | cell viability [2] | cell viability [3] | cell viability [4] | cell viability [5] | cell viability [6] | cell viability [7] | cell viability [8] | cell viability [9] | cell viability [10] | cell viability [11] | cell viability [12] | cell viability [13] | cell viability [14] | cell viability [15] | cell viability [16] | cell viability [17] | cell viability [18] | cell viability [19] | cell viability [20] | cell viability [21] | cell viability [22] | cell viability [23] | cell viability [24] | cell viability [25] | cell viability [26] | cell viability [27] | cell viability [28] | cell viability [29] | cell viability [30] | cell viability [31] | cell viability [32] | cell viability [33] |
| --- | --- | --- | --- | --- | --- | --- | --- | --- | --- | --- | --- | --- | --- | --- | --- | --- | --- | --- | --- | --- | --- | --- | --- | --- | --- | --- | --- | --- | --- | --- | --- | --- | --- |
| O=C(O)C1=NC(C(=O)O)CC(/C=C/N2c3cc(O)c(OC4OC(CO)C(O)C(O)C4O)cc3CC2C(=O)O)=C1 (stereo not drawn) | 109% | 106% | 110% | 109% | 101% | 113% | 112% | 104% | 103% | 95.9% | 103% | 102% | 107% | 101% | 113% | 101% | 111% | 115% | 102% | 102% | 101% | 97.2% | 112% | 113% | 102% | 118% | 108% | 112% | 105% | 96.4% | 111% | 105% | 96.9% |
| OC1CCC(Nc2ncc3nc(Nc4c(F)cc(F)cc4F)n([C@@H]4CCOC4)c3n2)CC1 (stereo partly drawn) | 96.4% | 93.4% | 99.2% | 110% | 118% | 108% | 110% | 107% | 125% | 80.9% | 91.4% | 96.5% | 92.9% | 103% | 95.7% | 105% | 101% | 97.4% | 105% | 95.4% | 40.9% | 99.4% | 90.4% | 111% | 114% | 96.1% | 112% | 116% | 118% | 116% | 100% | 84.3% | 87.3% |
| CN(NC(=O)CC(=O)NN(C)C(=S)c1ccccc1)C(=S)c1ccccc1 | 84.1% | 89.7% | 98.9% | 83.7% | 15.8% | 4.39% | 3.48% | 3.79% | 4.13% | 3.69% | 4.7% | 112% | 116% | 117% | 120% | 18.3% | 6.81% | 5.75% | 5.74% | 6.44% | 5.8% | 5.63% | 78.8% | 75.8% | 80.7% | 93.1% | 10.5% | 5.14% | 4.03% | 4.74% | 4.6% | 4.37% | 5.18% |
| O=C(Nc1ccc(F)c(C(F)(F)F)c1)Nc1nnc(-c2ccncc2)s1 | – | – | – | – | – | – | – | – | – | – | – | 99.6% | 112% | 104% | 103% | 107% | 105% | 88.9% | 104% | 105% | 106% | 92.8% | 121% | 114% | 124% | 113% | 115% | 117% | 121% | 104% | 113% | 125% | 109% |
| CC1(C)O[C@@H]2C[C@H]3[C@@H]4CCC5=CC(=O)C=C[C@]5(C)[C@H]4[C@@H](O)C[C@]3(C)[C@]2(C(=O)CO)O1 | 74.9% | 34.7% | 89.1% | 77% | 72.8% | 73.6% | 66.3% | 57.7% | 60.3% | 60.3% | 53.6% | 99.8% | 39.1% | 96.1% | 95.7% | 89.1% | 83.2% | 67.5% | 61.8% | 65.2% | 58.4% | 55.4% | 79.7% | 37.8% | 82.4% | 81.8% | 80% | 88.1% | 68.4% | 51.9% | 53.9% | 49.8% | 53.4% |
| CCC(C)(Oc1ccc(C2(c3ccc(OC(C)(CC)C(=O)O)cc3)CCCCC2)cc1)C(=O)O (stereo not drawn) | 103% | 96.8% | 108% | 103% | 109% | 108% | 105% | 108% | 101% | 109% | 77.9% | 103% | 101% | 119% | 113% | 108% | 111% | 109% | 91.3% | 104% | 102% | 77.7% | 117% | 101% | 99.1% | 108% | 107% | 102% | 118% | 110% | 114% | 113% | 86.6% |
| COc1ccc(-c2nc(N3CCOCC3)c3sc(CN(C)c4ncc(C(=O)NO)cn4)cc3n2)cn1 | 88.4% | 101% | 67.8% | 34.5% | 6.86% | 6.43% | 6.72% | 6.14% | 6.01% | 5.89% | 4.98% | 90.5% | 83.6% | 49.9% | 20.5% | 6.31% | 6.48% | 5.87% | 5.83% | 6.2% | 5.41% | 3.98% | 97% | 108% | 78.3% | 37.7% | 7.5% | 7.3% | 6.64% | 6.58% | 5.98% | 6.08% | 4.38% |
| N[C@H](CSC(c1ccccc1)(c1ccccc1)c1ccccc1)C(=O)O | 105% | 99.3% | 113% | 99.4% | 117% | 97% | 102% | 94% | 69.4% | 54.9% | 14.7% | 44.8% | 74.6% | 75.2% | 68.2% | 71.1% | 60.9% | 69.8% | 52.3% | 47.2% | 18.7% | 2.79% | 100% | 105% | 122% | 86.5% | 106% | 95.6% | 94% | 82.1% | 60.8% | 40.1% | 12.8% |
| CNC1CCC(N(Cc2cccc(-c3ccncc3)c2)C(=O)c2sc3c(F)ccc(F)c3c2Cl)CC1 (stereo not drawn) | 80.2% | 102% | 106% | 117% | 103% | 101% | 102% | 113% | 93.3% | 85.3% | 53.2% | 97.5% | 101% | 120% | 105% | 109% | 95.9% | 98% | 110% | 99.9% | 92.3% | 73.3% | 93.7% | 99.3% | 113% | 107% | 104% | 74.7% | 101% | 91.9% | 90.3% | 85.9% | 69.2% |
| CN1\C(=C(\O)C2=CC=CC=C2[S+]1([O-])=O)C(=O)NC3=NC=C(C)S3 | 94.9% | 94.8% | 98.2% | 103% | 87.8% | 85.2% | 90.2% | 83.1% | 99.9% | 96.7% | 102% | 74.8% | 81.5% | 94.5% | 97.7% | 78% | 90.2% | 103% | 78.3% | 104% | 84% | 91.3% | 77.4% | 99.6% | 94.6% | 97% | 80.7% | 107% | 99.9% | 95.1% | 106% | 107% | 108% |
| COc1cc(OC)c(/C=C/[S+](=O)([O-])Cc2ccc(OC)c(NCC(=O)[O][Na])c2)c(OC)c1 | 123% | 105% | 125% | 125% | 118% | 75.9% | 29.5% | 28.2% | 27% | 21.9% | 13.4% | 109% | 107% | 115% | 112% | 111% | 66.3% | 20% | 17.8% | 15.2% | 9.59% | 7.67% | 121% | 122% | 122% | 120% | 121% | 24.1% | 24.3% | 18.8% | 10.1% | 7.92% | 8.13% |
| COc1ccc(-c2ccc3c(N4CCOC[C@@H]4C)nc(N4CCOC[C@@H]4C)nc3n2)cc1CO | 101% | 58.2% | 96.6% | 92.1% | 87.3% | 62.2% | 60.3% | 53.4% | 50.9% | 33% | 4.42% | 110% | 52% | 118% | 101% | 89.7% | 51% | 67.5% | 55.8% | 36.5% | 12.6% | 4.05% | 105% | 53% | 110% | 88.9% | 82.2% | 64.7% | 67.4% | 56.2% | 45.7% | 34.3% | 3.94% |
| CN1CCCN=C1/C=C/c1cccs1.O=C(O)c1cc2ccccc2c(Cc2c(O)c(C(=O)O)cc3ccccc23)c1O | 113% | 126% | 114% | 128% | 120% | 135% | 118% | 119% | 113% | 115% | 91.9% | 113% | 118% | 128% | 119% | 105% | 128% | 129% | 105% | 105% | 92.9% | 15% | – | – | – | – | – | – | – | – | – | – | – |
| CNc1nccc(-c2cccnc2Oc2cc(C(=O)Nc3cccc(C(F)(F)F)c3)ccc2C)n1 | 97.2% | 101% | 115% | 113% | 118% | 104% | 122% | 113% | 109% | 90.2% | 97.8% | 106% | 92.6% | 99.8% | 103% | 111% | 103% | 113% | 97.4% | 95.9% | 72.4% | 92.9% | 95.8% | 97.4% | 103% | 107% | 119% | 125% | 103% | 107% | 97.9% | 82.9% | 97% |
| Cc1cn(-c2cc(NC(=O)c3ccc(C)c(Nc4nccc(-c5cccnc5)n4)c3)cc(C(F)(F)F)c2)cn1 | 83.5% | 92.7% | 97.1% | 107% | 107% | 109% | 95.2% | 52.4% | 40.9% | 37.3% | 35.4% | 106% | 120% | 108% | 124% | 111% | 125% | 110% | 31.4% | 31.6% | 21.4% | 17.5% | 111% | 106% | 104% | 110% | 111% | 98.9% | 102% | 26.9% | 33.6% | 21.5% | 17.2% |
